Laboratory results from patent publication US6720339B2, “Certain fused pyrrolecarboxamides; a new class of GABA brain receptor ligands” (Neurogen Corporation, priority 1996, dated 2004).

biological target: GABAa receptor (benzodiazepine receptor); experiment: GABAa receptor binding assay (3H-RO15-1788 [3H-Flumazenil] displacement, rat cortical tissue homogenate); conditions: radioligand 0.5 nM 3H-RO15-1788 (3H-Flumazenil), 30 min at 4° C.
Description: The pharmaceutical utility of compounds of this invention are indicated by the following assay for GABAa receptor binding activity.
Assays are carried out as described in Thomas and Tallman (J. Bio. Chem. 156: 9838-9842, J. Neurosci. 3: 433-440, 1983). Rat cortical tissue is dissected and homogenized in 25 volumes (w/v) of 0.05 M Tris HCl buffer (pH 7.4 at 4° C.). The tissue homogenate is centrifuged in cold (4° C.) at 20,000×g for 20′. The supernatant is decanted and the pellet is rehomogenized in the same volume of buffer and again centrifuged at 20,000×g. The supernantant is decanted and the pellet is frozen at −20° C. overnight. The pellet is then thawed and rehomogenized in 25 volume (orginal wt/vol) of buffer and the procedure is carried out twice. The pellet is finally resuspended in 50 volumes (w/vol of 0.05 M Tris HCl buffer (pH 7.4 at […]).
Incubations contain […] of tissue homogenate, […] of radioligand 0.5 nM (^3H-RO15-1788 [^3H-Flumazenil] specific activity 80 Ci/mmol), drug or blocker and buffer to a total volume of […]. Incubations are carried for 30 min at 4° C. then are rapidly filtered through GFB filters to separate free and bound ligand. Filters are washed twice with fresh 0.05 M Tris HCl buffer (pH 7.4 at 4° C.) and counted in a liquid scintillation counter. 1.0 mM diazepam is added to some tubes to determine nonspecific binding. Data are collected in triplicate determinations, averaged and % inhabition of total specific binding is calculated. Total Specific Binding=Total−Nonspecific. In some cases, the amounts of unlabeled drugs is varied and total displacement curves of binding are carried out.

| Ki [nM] | Structure (SMILES) |
| --- | --- |
| 12 | CC1(C)CC(=O)c2c(C(=O)Nc3ccccc3F)c[nH]c2C1 [Compound 2] |
| 21 | CC1(C)CC(=O)c2c(C(=O)Nc3ccccc3)c[nH]c2C1 [Compound 1, N-Phenyl-4-oxo-6,6-dimethyl-4,5,6,7-tetrahydro-1H-indole-3-carboxamide] |
| 80 | CC1(C)CC(=O)c2c(C(=O)Nc3ccc4cccnc4n3)c[nH]c2C1 [Compound 8, N-(1,8-Napthyridin-2yl)-4-oxo-6,6-dimethyl-4,5,6,7-tetrahydro-1H-indole-3-carboxamide] |
| 10 | CC1(C)CC(=O)c2c(C(=O)Nc3ccsc3)c[nH]c2C1 [Compound 7, N-(3-Thienyl)-4-oxo-6,6-dimethyl-4,5,6,7-tetrahydro-1H-indole-3-caboxamide] |
| 13 | COc1ccc(NC(=O)c2c[nH]c3c2C(=O)CC(C)(C)C3)cc1 [Compound 3, N-(4-Methoxyphenyl)-4-oxo-6,6-dimethyl-4,5,6,7-tetrahydro-1H-indole-3-carboxamide] |
| 1 | CC1CC(=O)c2c(C(=O)Nc3ccccc3)c[nH]c2C1 (stereo not shown) [Compound 4, N-Phenyl-4-oxo-6-methyl-4,5,6,7-tetraydro-1H-indole-3-carboxamide] |
| 0.5 | CC1CC(=O)c2c(C(=O)Nc3ccccc3F)c[nH]c2C1 (stereo not shown) [Compound 5, N-(2-Fluorophenyl)-4-oxo-6-methyl-4,5,6,7-tetrahydro-1H-indole-3-carboxamide] |
| 4 | CC1CC(=O)c2c(C(=O)Nc3ccc4cccnc4n3)c[nH]c2C1 (stereo not shown) [Compound 9, N-(1,8-Napthyridin-2-yl)-4-oxo-6-methyl-4,5,6,7-tetahydro-1H-indole-3-carboxamide] |
| 12 | CC1CC(=O)c2c(C(=O)Nc3ccc4ccccc4n3)c[nH]c2C1 (stereo not shown) [Compound 10, N-(2-Quinolinyl)-4-oxo-6-methyl-4,5,6,7-tetrahydro-1H-indole-3-carboxamide] |
| 1 | COc1ccc(NC(=O)c2c[nH]c3c2C(=O)CC(C)C3)c(F)c1 (stereo not shown) [Compound 6, N-(2-Fluoro-4-methoxyphenyl)-4-oxo-6-methyl-4,5,6,7-tetrahydro-1H-indole-3-carboxamide] |

tested on: not given; experiment: not given; conditions: not given

| melting point [°C] | Structure (SMILES) |
| --- | --- |
| 190 to 192 | COc1ccc(NC(=O)c2c[nH]c3c2C(=O)CC(C)(C)C3)c(O)c1 [Example 3(g), N-(2-Hydroxy-4-methoxyphenyl)-4-oxo-6,6-dimethyl-4,5,6,7-tetrahydro-1H-indole-3-carboxamide] |
| 225 to 227 | CC1CC(=O)c2c(C(=O)Nc3cccnc3)c[nH]c2C1 (stereo not shown) [Example 3(ll), N-(3-Pyridyl)-4-oxo-6-methyl-4,5,6,7-tetrahydro-1H-indole-3-carboxamide] |
| 217 to 218 | COc1ccncc1NC(=O)c1c[nH]c2c1C(=O)CC(C)(C)C2 [Example 3(ii), N-(4-Methoxy-3-pyridyl)-4-oxo-6,6-dimethyl-4,5,6,7-tetrahydro-1H-indole-3-carboxamide] |
| 236 to 238 | COc1ccc(NC(=O)c2c[nH]c3c2C(=O)CC(C)C3)c(O)c1 (stereo not shown) [Example 3(x), N-(2-Hydroxy-4-methoxyphenyl)-4-oxo-6methyl-4,5,6,7-tetrahydro-1H-indole-3-carboxamide] |
| 389 to 390 | CC1(C)CC(=O)c2c(C(=O)Nc3ccc4cccnc4n3)c[nH]c2C1 [Compound 8, N-(1,8-Napthyridin-2yl)-4-oxo-6,6-dimethyl-4,5,6,7-tetrahydro-1H-indole-3-carboxamide] |
| 234 to 235 | COc1cccc(NC(=O)c2c[nH]c3c2C(=O)CC(C)C3)c1 (stereo not shown) [Example 3(u), N-(3-Methoxyphenyl)-4-oxo-6-methyl-4,5,6,7-tetrahydro-1H-indole-3-carboxamide] |
| 260 to 261 | COc1ccc(NC(=O)c2c[nH]c3c2C(=O)CC(C)C3)cc1 (stereo not shown) [Example 3(y), N-(4-Methoxyphenyl)-4-oxo-6-methyl-4,5,6,7-tetrahydro-1H-indole-3-carboxamide] |
| 302 to 303 | CC1CC(=O)c2c(C(=O)Nc3cccc(F)c3)c[nH]c2C1 (stereo not shown) [Example 3(s), N-(3-Fluorophenyl)-4-oxo-6-methyl-4,5,6,7-tetrahydro-1H-indole-3-carboxamide] |
| 258 to 260 | Cc1ccc(NC(=O)c2c[nH]c3c2C(=O)CC(C)C3)c(O)c1 (stereo not shown) [Example 3(dd), N-(2-Hydroxy-4-methylphenyl)-4-oxo-6-methyl-4,5,6,7-tetrahydro-1H-indole-3-carboxamide] |
| 259 to 261 | CC1(C)CC(=O)c2c(C(=O)Nc3cccc(F)c3)c[nH]c2C1 [Example 3(b), N-(3-Fluorophenyl)-4-oxo-6,6-dimethyl-4,5,6,7-tetrahydro-1H-indole-3-carboxamide] |
| 278 to 279 | CC1CC(=O)c2c(C(=O)Nc3ccccc3)c[nH]c2C1 (stereo not shown) [Compound 4, N-Phenyl-4-oxo-6-methyl-4,5,6,7-tetraydro-1H-indole-3-carboxamide] |
| 213 to 215 | COc1ccc(NC(=O)c2c[nH]c3c2C(=O)CC(C)(C)C3)c(F)c1 [Example 3(i), N-(2-Fluoro-4-methoxyphenyl)-4-oxo-6,6-dimethyl-4,5,6,7-tetrahydro-1H-indole-3-carboxamide] |
| 264 to 265 | CC1CC(=O)c2c(C(=O)Nc3ccccc3F)c[nH]c2C1 (stereo not shown) [Compound 5, N-(2-Fluorophenyl)-4-oxo-6-methyl-4,5,6,7-tetrahydro-1H-indole-3-carboxamide] |
| 282 to 284 | COc1ccc(NC(=O)c2c[nH]c3c2C(=O)CC(C)(C)C3)cc1O [Example 3(h), N-(3-Hydroxy-4-methoxyphenyl)-4-oxo-6,6-dimethyl-4,5,6,7-tetrahydro-1H-indole-3-carboxamide] |
| 224 to 225 | CCOc1ccc(NC(=O)c2c[nH]c3c2C(=O)CC(C)C3)c(F)c1 (stereo not shown) [Example 3(bb), N-(2-Fluoro-4-ethoxyphenyl)-4-oxo-6-methyl-4,5,6,7-tetrahydro-1H-indole-3-carboxamide] |
| 262 to 264 | CC1CC(=O)c2c(C(=O)Nc3ccc(F)cc3)c[nH]c2C1 (stereo not shown) [Example 3(t), N-(4-Fluorophenyl)-4-oxo-6-methyl-4,5,6,7-tetrahydro-1H-indole-3-carboxamide] |
| 225 to 227 | CC1(C)CC(=O)c2c(C(=O)Nc3ccc(O)cc3F)c[nH]c2C1 [Example 3(l), N-(2-Fluoro-4-hydroxyphenyl)-4-oxo-6,6-dimethyl-4,5,6,7-tetrahydro-1H-indole-3-carboxamide] |
| 268 to 270 | CC1(C)CC(=O)c2c(C(=O)Nc3ccc(F)cc3)c[nH]c2C1 [Example 3(c), N-(4-Fluorophenyl)-4-oxo-6,6-dimethyl-4,5,6,7-tetrahydro-1H-indole-3-carboxamide] |
| 280 to 290 | CC1CC(=O)c2c(C(=O)Nc3ccncc3)c[nH]c2C1 (stereo not shown) [Example 3(mm), N-(4-Pyridyl)-4-oxo-6-methyl-4,5,6,7-tetrahydro-1H-indole-3-carboxamide] |
| 237 to 239 | CC1(C)CC(=O)c2c(C(=O)Nc3cccnc3)c[nH]c2C1 [Example 3(hh), N-(3-Pyridyl)-4-oxo-6,6-dimethyl-4,5,6,7-tetrahydro-1H-indole-3-carboxamide] |
| 273 to 275 | CC1CC(=O)c2c(C(=O)Nc3ccc4ccccc4n3)c[nH]c2C1 (stereo not shown) [Compound 10, N-(2-Quinolinyl)-4-oxo-6-methyl-4,5,6,7-tetrahydro-1H-indole-3-carboxamide] |
| 217 to 219 | COc1ccc(NC(=O)c2c[nH]c3c2C(=O)CC(C)C3)c(F)c1 (stereo not shown) [Compound 6, N-(2-Fluoro-4-methoxyphenyl)-4-oxo-6-methyl-4,5,6,7-tetrahydro-1H-indole-3-carboxamide] |
| 267 to 269 | CC1CC(=O)c2c(C(=O)Nc3ccc(O)c(O)c3)c[nH]c2C1 (stereo not shown) [Example 3(cc), N-(3,4-Dihydroxyphenyl)-4-oxo-6-methyl-4,5,6,7-tetrahydro-1H-indole-3-carboxamide] |
| 320 | CC1CC(=O)c2c(C(=O)Nc3ccc(O)cc3)c[nH]c2C1 (stereo not shown) [Example 3(v), N-(4-Hydroxyphenyl)-4oxo-6-methyl-4,5,6,7-tetrahydro-1H-indole-3-carboxamide] |
